Among the data in article PMC6385482 (2018) are Kd1 values, retold here.

Assay [1] deals with hpDNA (hairpin DNA, 28 bp as printed) (DNA, hairpin) CGCGAATTCGCGTTTTCGCGAATTCGCG
Briefly: fluorescence titration, single-site fit. Conditions: PBS (ion concentrations not given), PBS pH 7.4, room temperature, 1 h.

Assay [2] has the same test system. The assay can be described thus: fluorescence titration, two-site fit with offset. The note with it: PBS (ion concentrations not given); PBS pH 7.4, room temperature, 1 h; 10 nM compound; site 1 of 2.

The structures appear in SMILES notation.

As for `CCOc1ccc(-c2nc3ccc(-c4nc5ccc(N6CCN(C)CC6)cc5[nH]4)cc3[nH]2)cc1`, in assay [1] (4 nM compound), the Kd1 was found to be 2.6 ± 0.4 nM.

For the molecule `CN1CCN(c2ccc3nc(-c4ccc5nc(-c6ccc(OCCCCNC(=O)c7ccc8c(c7)C(=O)OC87c8ccc(N(C)C)c[c]8[Ge]([CH3])([CH3])[c]8cc(N(C)C)ccc87)cc6)[nH]c5c4)[nH]c3c2)CC1`, in assay [1] (10 nM compound), the Kd1 is on record as 4374 ± 192 nM.

Take `CN1CCN(c2ccc3nc(-c4ccc5nc(-c6ccc(OCCCCNC(=O)c7ccc8c(c7)C(=O)OC87c8ccc(N(C)C)cc8C(C)(C)c8cc(N(C)C)ccc87)cc6)[nH]c5c4)[nH]c3c2)CC1`: the Kd1 in assay [1] (10 nM compound) is 347 ± 22 nM.

The molecule `CN1CCN(c2ccc3nc(-c4ccc5nc(-c6ccc(OCCCCNC(=O)c7ccc8c(c7)C(=O)OC87c8ccc(N(C)C)cc8Oc8cc(N(C)C)ccc87)cc6)[nH]c5c4)[nH]c3c2)CC1` gave a Kd1 in assay [1] (10 nM compound) of 365 ± 12 nM.

In assay [1] (10 nM compound), `CN1CCN(c2ccc3nc(-c4ccc5nc(-c6ccc(OCCCCNC(=O)c7ccc8c(c7)C(=O)OC87c8ccc(N(C)C)cc8[Si](C)(C)c8cc(N(C)C)ccc87)cc6)[nH]c5c4)[nH]c3c2)CC1` gave a Kd1 of 4799 ± 201 nM.

In assay [1] (10 nM compound), `CN1CCN(c2ccc3nc(-c4ccc5nc(-c6ccc(OCCCCNC(=O)c7ccc8c(c7)C7(OC8=O)c8ccc(N(C)C)c[c]8[Ge]([CH3])([CH3])[c]8cc(N(C)C)ccc87)cc6)[nH]c5c4)[nH]c3c2)CC1` registered a Kd1 of 572 ± 26 nM.

In turn, `CN1CCN(c2ccc3nc(-c4ccc5nc(-c6ccc(OCCCCNC(=O)c7ccc8c(c7)C7(OC8=O)c8ccc(N(C)C)cc8C(C)(C)c8cc(N(C)C)ccc87)cc6)[nH]c5c4)[nH]c3c2)CC1` returned a Kd1 in assay [2] of 65 ± 7 nM.

`CN1CCN(c2ccc3nc(-c4ccc5nc(-c6ccc(OCCCCNC(=O)c7ccc8c(c7)C7(OC8=O)c8ccc(N(C)C)cc8Oc8cc(N(C)C)ccc87)cc6)[nH]c5c4)[nH]c3c2)CC1` returned a Kd1 in assay [2] of 14 ± 1 nM.

In turn, `CN1CCN(c2ccc3nc(-c4ccc5nc(-c6ccc(OCCCCNC(=O)c7ccc8c(c7)C7(OC8=O)c8ccc(N(C)C)cc8[Si](C)(C)c8cc(N(C)C)ccc87)cc6)[nH]c5c4)[nH]c3c2)CC1` gave a Kd1 in assay [1] (10 nM compound) of 669 ± 26 nM.

As to `CNc1ccc2c(c1)C(C)(C)c1cc(NC)ccc1C21OC(=O)c2cc(C(=O)NCCCCOc3ccc(-c4nc5ccc(-c6nc7ccc(N8CCN(C)CC8)cc7[nH]6)cc5[nH]4)cc3)ccc21`, in assay [1] (10 nM compound), the Kd1 worked out at 155 ± 14 nM.

Turning to `CNc1ccc2c(c1)C(C)(C)c1cc(NC)ccc1C21OC(=O)c2ccc(C(=O)NCCCCOc3ccc(-c4nc5ccc(-c6nc7ccc(N8CCN(C)CC8)cc7[nH]6)cc5[nH]4)cc3)cc21`, the Kd1 in assay [2] is given as 27 ± 3 nM.
